{
  "source": "patent US8481005B2",
  "about": "“Methods to prevent cytotoxicity using N-acetyl-cysteine” (priority 2006, dated 2013)",
  "key": {"[1]": {"tested_on": "teeth and surrounding tissue", "experiment": "Rat tooth bleaching with or without NAC: photographs of teeth and tissue", "format": "in vivo", "protocol": "Rats were divided into the following groups: A: control, unbleached; B: bleached with no NAC; and C: Bleached with NAC. The bleaching agent used in the following studies was Oral B Rembrandt whitening system (containing 33% hydrogen peroxide and carbamide) often used in dental offices (chair side). NAC was initially painted on teeth at a 20 mM concentration for 5 minutes. Next a bleaching agent was applied for 5 hours, after which the teeth were extracted, and pulp was obtained from each group and treated with trypsin/EDTA (0.25%) and collagenase (0.02%). […] Also note that bleaching in the presence of NAC (F) was as effective as bleaching without the NAC (E). […] Note the white tissue in the absence of NAC which represents dead and dying tissue."}, "[2]": {"tested_on": "odontoblasts", "experiment": "Cell viability of rat odontoblasts", "format": "cell-based", "details": "0.0164M-0.00164M HEMA with NAC 20 mM, about 12-14 hours, versus HEMA alone", "protocol": "Differentiation was induced by the addition of about 10 mM of β-glycerophosphate and about 50 μg/ml of ascorbic acid."}, "[3]": {"tested_on": "dental pulp stromal cells", "experiment": "Rat tooth bleaching: dental pulp stromal cell growth, count and ALP", "format": "in vivo, rats", "details": "bleaching agent 5 hours, without or with NAC 20 mM painted 5 minutes; 12-21 days", "protocol": "Similar studies were also carried out using dental pulp stromal cells. Rats were divided into three groups: (1) Control (no bleach); (2) Bleach; and (3) Bleach and NAC. In these studies, NAC was initially painted on to the teeth (20 mM concentration) for 5 minutes and then bleaching agent applied for 5 hours, after which the teeth were extracted, and pulp was obtained from each group. Pulp was treated with trypsin/EDTA (0.25%) and collagenase (0.02%) to obtain single cell suspension of the cells, washed and resuspended in DMEM containing β-glycerophosphate (10 mM) and ascorbic acid (50 μg/ml), and allowed to grow to confluency, before either photographs were taken (12-21 days; FIG. 47); cells were counted (21 days; FIG. 48); or ALP staining was performed (21 days; FIG. 49). […] Whitening Strips"}, "[4]": {"tested_on": "gingival cells", "experiment": "PI/FITC-Annexin V cell survival of rat gingival cells", "format": "cell-based", "details": "0.0164M-0.00164M HEMA with NAC 20 mM, about 12-14 hours, versus HEMA alone", "protocol": "Rat gingival cells were obtained from 8 week old male rats and cultured in DMEM supplemented with 10% FBS, 1% antibiotic-antimycotic, 1% sodium pyruvate and 1% non-essential amino acids. […] Cell survival was measured by PI/FITC-Annexin V staining as described previously."}, "[5]": {"tested_on": "dental pulp stromal cells", "experiment": "Cell death in rat dental pulp stromal cells in vitro", "format": "cell-based, Sprague-Dawley rats", "details": "0.0328M and 0.00328M HEMA with NAC 20 mM, about 12-14 hours, versus HEMA alone", "description": "In a first study using dental pulp stromal cells, dental pulp tissue was extracted from the lower central incisors of 8-12 week old male Sprague-Dawley rats. The lower central incisors were carefully extracted without fracture to avoid periodontal tissue influx into the pulp tissue. The periodontal tissue and other soft tissue remnants were removed from the root part of the teeth, and the incisor tip and root parts were then cut to allow the pulp tissue to be washed out. The extracted tissue was then treated with 0.1% collagenase in 0.25% trypsin EDTA at 37° C. for about 15 minutes. The pellet of released cells was then centrifuged at about 2000 rpm for about 4 minutes and resuspended in DMEM supplemented with 10% FBS, 1% sodium pyruvate, 1% non-essential amino acids and 1% antibiotic-antimycotic. The cells were cultured in a 6 well plate and the media was changed every 3 days."}, "[6]": {"tested_on": "dental pulp cells", "experiment": "Rat incisor restoration with Herculite XR/ProBOND with or without NAC: pulp cell growth and ALP staining", "format": "in vivo, rats", "details": "restorative materials about 5 hours", "quoted_text": "In a next experiment, the incisors of nine eight-week-old male rats were prepared with class V preparations near the level of the gingival using a #1 round bur in a high speed dental handpiece.\nAgain, in this experiment upper and lower incisors were used. Restorative materials were placed on the teeth for about 5 hours. The pulp was extracted and treated with trypsin/EDTA (0.25%) and collagenase (0.02%), washed and resuspended in DMEM containing β-glycerophosphate (10 mM) and ascorbic acid (50 μg/ml) and allowed to grow to confluency. After 14 days of cell growth (media changed every 2-3 days) photographs were taken using an inverted microscope; cells were detached and counted in each experimental group; and wells containing different experimental groups were stained for alkaline phosphatase (ALP).\nIn vivo studies were performed after tooth restorations to assess the protective effect of NAC on both the viability and function of rat pulp tissue. Eight week old male rats were used for restorations of the incisors. In this study the number of functional cells in cells extracted from the lining of the rat teeth where (A) no restorative materials were administered; (B) restorative materials only were applied; and (C) restorative material in conjunction with NAC were compared. Specifically, nine rats were used and were divided into 3 groups (A, B or C) of 3 rats each. […]"}, "[7]": {"tested_on": "human dental pulp stromal cells", "experiment": "Extracted human teeth restored with composite resin with or without NAC: pulp cell growth", "details": "restorations left 5 hours; 14 days of incubation", "protocol": "Three freshly extracted human teeth were obtained. Cavity preparations were performed on 2 freshly extracted third molars before restoration. One molar was left untouched and used as control. Specifically, tooth #1 was left untreated; tooth #2 was restored with composite resin alone; and tooth #3 was restored with composite resin after application of NAC. […] Single cell suspensions of control and each restored tooth were then cultured in the presence of β-glycerophosphate (10 mM) and ascorbic acid (50 μg/ml) and microscopic pictures taken after 14 days of incubation for growth."}, "[8]": {"tested_on": "human dental pulp stromal cells", "experiment": "Apoptosis in human dental pulp stromal cells, 18 hours", "format": "cell-based", "details": "HEMA and NAC 20 mM", "protocol": "Pulp was then removed, minced and treated with trypsin/EDTA and collagenase to release the dental pulp stromal cells. […] Next the cells were analyzed for apoptosis using FTIC-Annexin V and PI."}, "[9]": {"tested_on": "osteopontin (OPN) and osteocalcin (OCN)", "experiment": "RT-PCR for osteopontin and osteocalcin in rat dental pulp stromal cells", "format": "cell-based", "details": "media containing ascorbic acid and β-glycerophosphate", "description": "Rat dental pulp stromal cells were again cultured under 3 different conditions: (1) DMEM alone (undifferentiated); (2) DMEM+β-glycerophosphate+ascorbic acid (differentiated−Dex); and (3) DMEM+β-glycerophosphate+ascorbic acid+dexamethasone (differentiated+Dex). The differentiation of the cells under these different culture conditions was then confirmed by an RT-PCR to assay for genes which are induced during differentiation (osteopontin and osteocalcin). Osteopontin (OPN), is an early osteoblastic marker and osteocalcin (OCN) a late stage marker.\nRNA was extracted from the cells and PCR was again performed for OPN and OCN."}, "[10]": {"tested_on": "gingival cells", "experiment": "Bleaching agent on rat palatal gingiva: gingival cell growth", "format": "in vivo, rats", "details": "bleaching agent on palatal gingiva 5 hours, without or with NAC; cells grown 21 days", "protocol": "For gingival cells, the bleaching agent was applied in the same order of experimental groups to the palatal gingiva for 5 hours, washed and excised and minced and treated with collagenase (0.01%) for 48 hours before the single cell suspensions were prepared by washing and resuspending in DMEM. The cells were allowed to grow to confluency for 21 days before photographs were taken. […] FIG. 46 provides a graphical representation of cell survival."}},
  "data": [
    {"smiles": "CC(=O)N[C@@H](CS)C(=O)O", "note": "[NAC, N-acetyl-cysteine]", "values": [
      {"measurement": "efficacy or potency of the bleaching system", "setting": "[1]; NAC 20 mM painted on teeth 5 minutes, then bleaching agent 5 hours", "value": "does not decrease the efficacy or potency of the bleaching system"},
      {"measurement": "white (dead and dying) tissue after bleaching", "setting": "[1]; bleaching agent 5 hours, without or with NAC 20 mM", "value": "the amount of white tissue is minimal"},
      {"measurement": "percentage of viable cells", "setting": "[2]", "value": "percentage of viable cells increases"},
      {"measurement": "cytotoxicity and cell death of dental pulp stromal cells", "setting": "[3]", "value": "could be reversed"},
      {"measurement": "viable cells after HEMA exposure", "setting": "[4]", "value": "higher number of viable cells"},
      {"measurement": "viable cells after HEMA exposure", "setting": "[5]", "value": "higher number of viable cells"},
      {"measurement": "pulp cell number after restoration", "setting": "[6]; 14 days of cell growth", "value": "can help to prevent the cell loss"},
      {"measurement": "ALP staining of pulp cells after restoration", "setting": "[6]; composite resin with or without NAC", "value": "can be ameliorated"},
      {"measurement": "growth of pulp cells", "setting": "[7]", "value": "growth and expansion of the cells resulted"},
      {"measurement": "inhibition of HEMA-mediated cell death", "setting": "[8]", "value": "significant inhibition of HEMA-mediated cell death at all HEMA concentrations"},
      {"measurement": "differentiation markers OPN and OCN", "setting": "[9]", "value": "express higher levels of OPN and OCN"},
      {"measurement": "gingival cell death", "setting": "[10]", "value": "ameliorated"}
    ]}
  ]
}
